Laboratory results reported in ChEMBL document CHEMBL1123339, “Ligand-receptor interactions via hydrogen-bond formation. Synthesis and pharmacological evaluation of pyrrolo and pyrido analogues of the cardiotonic agent 7-hydroxycyclindole” (1986).

Species on record: Felis catus
Assay: Compound was evaluated for positive inotropic activity in vitro on cat papillary muscle, expressed as the percent increase over base-line contractility at 1 x 10 e-4 M
Format: functional

SMILES | Increase [%]
CN(C)C1CCc2c(c3ccc4ncccc4c3n2C)C1 (stereo not given) | 69
CN(C)C1CCc2[nH]c3c(ccc4ncccc43)c2C1 (stereo not given) | 80
CN(C)C1CCc2[nH]c3cc(O)ccc3c2C1 (stereo not given) | 50
CN(C)C1CCc2[nH]c3c(ccc4[nH]ccc43)c2C1 (stereo not given) | 15
Nc1cc(-c2ccncc2)c[nH]c1=O [INAMRINONE] | 50
